According to patent US20060148730A1, “Method of treating tuberculosis” (priority 2003, published 2006):
≈ marks a conversion by molar mass, not a printed value.

test system: M. tuberculosis H37Rv; assay: MIC vs. M. tuberculosis H37Rv, microplate Alamar Blue assay (MABA); type: cell-based; conditions: Mycobacterium tuberculosis, H37RV, Table 5; read-out: MIC

Structure (SMILES)	MIC
CC[C@H]1OC(=O)[C@H](C)[C@@H](O)[C@H](C)[C@@H](OC2OC(C)CC(N(C)C)C2OC(=O)Nc2ccccc2)[C@](C)(OC)C/C(C)=C2/O[C@@]1(C)C=C2C (stereo partly shown) [Compound 1GYG9]	16 µM (≈ 10.8 µg/mL)

same assay, conditions: Table 3; parallel-synthesis carbazate library products, SPE purified; read-out: MIC

Structure (SMILES)	MIC
CC[C@H]1OC(=O)[C@H](C)[C@@H](O[C@H]2CC(C)(OC)[C@@H](O)[C@H](C)O2)[C@H](C)[C@@H](O[C@@H]2O[C@H](C)C[C@H](N(C)C)[C@H]2O)[C@](C)(OC)C[C@@H](C)C(=O)[C@H](C)[C@H]2N(NCCCc3ccccc3)C(=O)O[C@]12C (stereo partly shown) [A2′]	10 µM (≈ 9.06 µg/mL)
CC[C@H]1OC(=O)[C@H](C)[C@@H](O[C@H]2CC(C)(OC)[C@@H](O)[C@H](C)O2)[C@H](C)[C@@H](O[C@@H]2O[C@H](C)C[C@H](N(C)C)[C@H]2O)[C@](C)(OC)C[C@@H](C)C(=O)[C@H](C)[C@H]2N(NC/C=C/c3ccccc3)C(=O)O[C@]12C (stereo partly shown) [A4′]	7 µM (≈ 6.33 µg/mL)
CC[C@H]1OC(=O)[C@H](C)[C@@H](O[C@H]2CC(C)(OC)[C@@H](O)[C@H](C)O2)[C@H](C)[C@@H](O[C@@H]2O[C@H](C)C[C@H](N(C)C)[C@H]2O)[C@](C)(OC)C[C@@H](C)C(=O)[C@H](C)[C@H]2N(NC/C=C/c3cc(OC)c(O)c(OC)c3)C(=O)O[C@]12C (stereo partly shown) [A6′]	10.2 µM (≈ 10 µg/mL)
CC[C@H]1OC(=O)[C@H](C)[C@@H](O[C@H]2CC(C)(OC)[C@@H](O)[C@H](C)O2)[C@H](C)[C@@H](O[C@@H]2O[C@H](C)C[C@H](N(C)C)[C@H]2O)[C@](C)(OC)C[C@@H](C)C(=O)[C@H](C)[C@H]2N(NCc3ccc([N+](=O)[O-])o3)C(=O)O[C@]12C (stereo partly shown) [A8′]	>9 µM
CC[C@H]1OC(=O)[C@H](C)[C@@H](O[C@H]2CC(C)(OC)[C@@H](O)[C@H](C)O2)[C@H](C)[C@@H](O[C@@H]2O[C@H](C)C[C@H](N(C)C)[C@H]2O)[C@](C)(OC)C[C@@H](C)C(=O)[C@H](C)[C@H]2N(NCc3ccoc3)C(=O)O[C@]12C (stereo partly shown) [A10′]	>7 µM
CC[C@H]1OC(=O)[C@H](C)[C@@H](O[C@H]2CC(C)(OC)[C@@H](O)[C@H](C)O2)[C@H](C)[C@@H](O[C@@H]2O[C@H](C)C[C@H](N(C)C)[C@H]2O)[C@](C)(OC)C[C@@H](C)C(=O)[C@H](C)[C@H]2N(NCc3cc(C(=O)OC)c(C)o3)C(=O)O[C@]12C (stereo partly shown) [A12′]	>12 µM
CCOC(=O)c1cc(-c2ccc(Cl)cc2)oc1CNN1C(=O)O[C@]2(C)[C@@H](CC)OC(=O)[C@H](C)[C@@H](O[C@H]3CC(C)(OC)[C@@H](O)[C@H](C)O3)[C@H](C)[C@@H](O[C@@H]3O[C@H](C)C[C@H](N(C)C)[C@H]3O)[C@](C)(OC)C[C@@H](C)C(=O)[C@H](C)[C@@H]12 (stereo partly shown) [B1′]	>18 µM
CC[C@H]1OC(=O)[C@H](C)[C@@H](O[C@H]2CC(C)(OC)[C@@H](O)[C@H](C)O2)[C@H](C)[C@@H](O[C@@H]2O[C@H](C)C[C@H](N(C)C)[C@H]2O)[C@](C)(OC)C[C@@H](C)C(=O)[C@H](C)[C@H]2N(NCc3nccn3C)C(=O)O[C@]12C (stereo partly shown) [B3′]	>18 µM
CC[C@H]1OC(=O)[C@H](C)[C@@H](O[C@H]2CC(C)(OC)[C@@H](O)[C@H](C)O2)[C@H](C)[C@@H](O[C@@H]2O[C@H](C)C[C@H](N(C)C)[C@H]2O)[C@](C)(OC)C[C@@H](C)C(=O)[C@H](C)[C@H]2N(NCc3cncn3C)C(=O)O[C@]12C (stereo partly shown) [B5′]	>27 µM
CCCCc1nc(CNN2C(=O)O[C@]3(C)[C@@H](CC)OC(=O)[C@H](C)[C@@H](O[C@H]4CC(C)(OC)[C@@H](O)[C@H](C)O4)[C@H](C)[C@@H](O[C@@H]4O[C@H](C)C[C@H](N(C)C)[C@H]4O)[C@](C)(OC)C[C@@H](C)C(=O)[C@H](C)[C@@H]23)c(Cl)[nH]1 (stereo partly shown) [B7′]	>19 µM
CC[C@H]1OC(=O)[C@H](C)[C@@H](O[C@H]2CC(C)(OC)[C@@H](O)[C@H](C)O2)[C@H](C)[C@@H](O[C@@H]2O[C@H](C)C[C@H](N(C)C)[C@H]2O)[C@](C)(OC)C[C@@H](C)C(=O)[C@H](C)[C@H]2N(NCc3c(C)[nH]c4ccc([N+](=O)[O-])cc34)C(=O)O[C@]12C (stereo partly shown) [B11′]	>22 µM
CC[C@H]1OC(=O)[C@H](C)[C@@H](O[C@H]2CC(C)(OC)[C@@H](O)[C@H](C)O2)[C@H](C)[C@@H](O[C@@H]2O[C@H](C)C[C@H](N(C)C)[C@H]2O)[C@](C)(OC)C[C@@H](C)C(=O)[C@H](C)[C@H]2N(NCc3cn(Cc4ccccc4)c4ccccc34)C(=O)O[C@]12C (stereo partly shown) [C2′]	7 µM (≈ 7.05 µg/mL)
CC[C@H]1OC(=O)[C@H](C)[C@@H](O[C@H]2CC(C)(OC)[C@@H](O)[C@H](C)O2)[C@H](C)[C@@H](O[C@@H]2O[C@H](C)C[C@H](N(C)C)[C@H]2O)[C@](C)(OC)C[C@@H](C)C(=O)[C@H](C)[C@H]2N(NCc3cn(S(=O)(=O)c4ccc(C)cc4)c4ccccc34)C(=O)O[C@]12C (stereo partly shown) [C4′]	11 µM (≈ 11.8 µg/mL)
CC[C@H]1OC(=O)[C@H](C)[C@@H](O[C@H]2CC(C)(OC)[C@@H](O)[C@H](C)O2)[C@H](C)[C@@H](O[C@@H]2O[C@H](C)C[C@H](N(C)C)[C@H]2O)[C@](C)(OC)C[C@@H](C)C(=O)[C@H](C)[C@H]2N(NCc3c(C)noc3C)C(=O)O[C@]12C (stereo partly shown) [C6′]	>17 µM
CC[C@H]1OC(=O)[C@H](C)[C@@H](O[C@H]2CC(C)(OC)[C@@H](O)[C@H](C)O2)[C@H](C)[C@@H](O[C@@H]2O[C@H](C)C[C@H](N(C)C)[C@H]2O)[C@](C)(OC)C[C@@H](C)C(=O)[C@H](C)[C@H]2N(NCc3c(-c4ccccc4)noc3C)C(=O)O[C@]12C (stereo partly shown) [C10′]	12 µM (≈ 11.5 µg/mL)
CC[C@H]1OC(=O)[C@H](C)[C@@H](O[C@H]2CC(C)(OC)[C@@H](O)[C@H](C)O2)[C@H](C)[C@@H](O[C@@H]2O[C@H](C)C[C@H](N(C)C)[C@H]2O)[C@](C)(OC)C[C@@H](C)C(=O)[C@H](C)[C@H]2N(/N=C/c3c(C)noc3-c3ccccc3)C(=O)O[C@]12C (stereo partly shown) [C12′]	9 µM (≈ 8.61 µg/mL)

same assay, conditions: Table 4; read-out: MIC

Structure (SMILES)	MIC
CCC1OC(=O)C(C)C(OC2CC(C)(OC)C(O)C(C)O2)C(C)C(OC2OC(C)CC(N(C)C)C2O)C(C)(OC)CC(C)C(=NOCCCCF)C(C)C(O)C1(C)O (stereo not shown) [Compound 1DP79]	3.5 µM (≈ 2.93 µg/mL)
CCC1OC(=O)C(C)C(OC2CC(C)(OC)C(O)C(C)O2)C(C)C(OC2OC(C)CC(N(C)C)C2O)C(C)(OC)CC(C)C(=NOCCC2OCCO2)C(C)C(O)C1(C)O (stereo not shown) [Compound 1GY11]	29.5 µM (≈ 25.5 µg/mL)

same assay, conditions: Table 5; read-out: MIC

Structure (SMILES)	MIC
C#CCON=C1C(C)CC(C)(OC)C(OC2OC(C)CC(N(C)C)C2O)C(C)C(OC2CC(C)(OC)C(O)C(C)O2)C(C)C(=O)OC(CC)C(C)(O)C(O)C1C (stereo not shown) [Compound 1GY17]	13 µM (≈ 10.4 µg/mL)
CCC1OC(=O)C(C)C(OC2CC(C)(OC)C(O)C(C)O2)C(C)C(OC2OC(C)CC(N(C)C)C2O)C(C)(OC)CC(C)C(=NOC(C)(C)CC(C)=O)C(C)C(O)C1(C)O (stereo not shown) [Compound 1GY27]	31 µM (≈ 26.7 µg/mL)
CCC1OC(=O)C(C)C(OC2CC(C)(OC)C(O)C(C)O2)C(C)C(OC2OC(C)CC(N(C)C)C2O)C(C)(OC)CC(C)C(=NOCC(=O)c2ccc(-c3ccccc3)cc2)C(C)C(O)C1(C)O (stereo not shown) [Compound 1GY53]	6.8 µM (≈ 6.51 µg/mL)
CCC1OC(=O)C(C)C(OC2CC(C)(OC)C(O)C(C)O2)C(C)C(OC2OC(C)CC(N(C)C)C2O)C(C)(O)CC(C)C(=NN=Cc2ccc(C(F)(F)F)cc2)C(C)C(O)C1(C)O (stereo not shown) [Compound 1OK95]	27 µM (≈ 24.4 µg/mL)
CCC1OC(=O)C(C)C(OC2CC(C)(OC)C(O)C(C)O2)C(C)C(OC2OC(C)CC(N(C)C)C2O)C(C)(O)CC(C)C(=NNC2CCCCC2)C(C)C(O)C1(C)O (stereo not shown) [Compound 1OK107]	3.9 µM (≈ 3.24 µg/mL)
CCC1OC(=O)C(C)C(OC2CC(C)(OC)C(O)C(C)O2)C(C)C(OC2OC(C)CC(N(C)C)C2O)C(C)(O)CC(C)C(=NN=Cc2cccc(OC(F)(F)F)c2)C(C)C(O)C1(C)O (stereo not shown) [Compound 1OK109]	11 µM (≈ 10.1 µg/mL)
